# Data from patent publication US4442044A, “Process for preparing monoesters and diesters of N-alkyl substituted amino methyl phosphonic acid” (priority 1983, dated 1984).
# Experiments:
# Test in all cases: post-emergent herbicidal activity, greenhouse
# Type in all cases: in vivo
# [1] = system: Barnyardgrass; details: 4 WAT
# Procedure, shortened: (§1)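 Seeds or propagules sown in compacted top soil, grown 2–3 weeks in greenhouse, then sprayed with compound solution/suspension containing ~0.4% emulsifier at tabulated rates. Injury scored visually versus untreated controls at ~2 and 4 weeks after treatment, expressed as a herbicidal activity index.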
# [2] = system: Crabgrass; details: Table II, 4 WAT
# Procedure, shortened: as §1
# [3] = system: Sorghum; details: Table II, 4 WAT
# Procedure, shortened: as §1
# [4] = system: Wheat; details: Table II, 4 WAT
# Procedure, shortened: as §1
# [5] = system: Quackgrass; details: Table I, 4 WAT
# Procedure, shortened: as §1
# [6] = system: Velvetleaf; details: 4 WAT
# Procedure, shortened: as §1
# [7] = system: Downy Brome; details: 4 WAT
# Procedure, shortened: as §1
# [8] = system: Canada Thistle; details: Table I, 4 WAT
# Procedure, shortened: as §1
# [9] = system: Morningglory; details: 4 WAT
# Procedure, shortened: as §1
# [10] = system: Johnsongrass; details: Table I, 4 WAT
# Procedure, shortened: as §1
# [11] = system: Rice; details: Table II, 4 WAT
# Procedure, shortened: as §1
# [12] = system: Wild Buckwheat; details: Table II, 4 WAT
# Procedure, shortened: as §1
# [13] = system: Yellow Nutsedge; details: Table I, 4 WAT
# Procedure, shortened: as §1
# [14] = system: Lambsquarters; details: 4 WAT
# Procedure, shortened: as §1
# [15] = system: Hemp Sesbania; details: Table II, 4 WAT
# Procedure, shortened: as §1
# [16] = system: Cocklebur; details: 4 WAT
# Procedure, shortened: as §1
# [17] = system: Sugar Beet; details: Table II, 4 WAT
# Procedure, shortened: as §1
# [18] = system: Soybean; details: Table II, 4 WAT
# Procedure, shortened: as §1
# [19] = system: Panicum Spp; details: Table II, 4 WAT
# Procedure, shortened: as §1
# [20] = system: Smartweed; details: 4 WAT
# Procedure, shortened: as §1
structure (smiles),measurement,setting,value
"CCOC(=O)CNCP(=O)(OC(C)C#N)OC(C)C#N (stereo not shown) [Example 1, glycine, N-[[bis(1-cyanoethoxy)phosphinyl]methyl], ethyl ester]",post-emergent herbicidal activity index,"[1]; Table I, 5.6 kg/h",4 (100% control)
same,post-emergent herbicidal activity index,"[1]; Table I, 11.2 kg/h",4 (100% control)
same,post-emergent herbicidal activity index,"[1]; Table II, 0.28 kg/h",2 (50-74% control)
same,post-emergent herbicidal activity index,"[1]; Table II, 1.12 kg/h",3 (75-99% control)
same,post-emergent herbicidal activity index,"[1]; Table II, 5.6 kg/h",4 (100% control)
same,post-emergent herbicidal activity index,[2]; 0.28 kg/h,1 (25-49% control)
same,post-emergent herbicidal activity index,[2]; 1.12 kg/h,3 (75-99% control)
same,post-emergent herbicidal activity index,[2]; 5.6 kg/h,4 (100% control)
same,post-emergent herbicidal activity index,[3]; 0.28 kg/h,1 (25-49% control)
same,post-emergent herbicidal activity index,[3]; 1.12 kg/h,3 (75-99% control)
same,post-emergent herbicidal activity index,[3]; 5.6 kg/h,4 (100% control)
same,post-emergent herbicidal activity index,[4]; 0.28 kg/h,1 (25-49% control)
same,post-emergent herbicidal activity index,[4]; 1.12 kg/h,2 (50-74% control)
same,post-emergent herbicidal activity index,[4]; 5.6 kg/h,4 (100% control)
same,post-emergent herbicidal activity index,[5]; 5.6 kg/h,3 (75-99% control)
same,post-emergent herbicidal activity index,[5]; 11.2 kg/h,2 (50-74% control)
same,post-emergent herbicidal activity index,"[6]; Table I, 5.6 kg/h",4 (100% control)
same,post-emergent herbicidal activity index,"[6]; Table I, 11.2 kg/h",3 (75-99% control)
same,post-emergent herbicidal activity index,"[6]; Table II, 0.28 kg/h",0 (0-24% control)
same,post-emergent herbicidal activity index,"[6]; Table II, 1.12 kg/h",2 (50-74% control)
same,post-emergent herbicidal activity index,"[6]; Table II, 5.6 kg/h",4 (100% control)
same,post-emergent herbicidal activity index,"[7]; Table I, 5.6 kg/h",3 (75-99% control)
same,post-emergent herbicidal activity index,"[7]; Table I, 11.2 kg/h",2 (50-74% control)
same,post-emergent herbicidal activity index,"[7]; Table II, 0.28 kg/h",0 (0-24% control)
same,post-emergent herbicidal activity index,"[7]; Table II, 1.12 kg/h",2 (50-74% control)
same,post-emergent herbicidal activity index,"[7]; Table II, 5.6 kg/h",4 (100% control)
same,post-emergent herbicidal activity index,[8]; 5.6 kg/h,4 (100% control)
same,post-emergent herbicidal activity index,[8]; 11.2 kg/h,3 (75-99% control)
same,post-emergent herbicidal activity index,"[9]; Table I, 5.6 kg/h",3 (75-99% control)
same,post-emergent herbicidal activity index,"[9]; Table I, 11.2 kg/h",3 (75-99% control)
same,post-emergent herbicidal activity index,"[9]; Table II, 0.28 kg/h",1 (25-49% control)
same,post-emergent herbicidal activity index,"[9]; Table II, 1.12 kg/h",2 (50-74% control)
same,post-emergent herbicidal activity index,"[9]; Table II, 5.6 kg/h",3 (75-99% control)
same,post-emergent herbicidal activity index,[10]; 5.6 kg/h,3 (75-99% control)
same,post-emergent herbicidal activity index,[10]; 11.2 kg/h,4 (100% control)
same,post-emergent herbicidal activity index,[11]; 0.28 kg/h,0 (0-24% control)
same,post-emergent herbicidal activity index,[11]; 1.12 kg/h,1 (25-49% control)
same,post-emergent herbicidal activity index,[11]; 5.6 kg/h,4 (100% control)
same,post-emergent herbicidal activity index,[12]; 0.28 kg/h,0 (0-24% control)
same,post-emergent herbicidal activity index,[12]; 1.12 kg/h,2 (50-74% control)
same,post-emergent herbicidal activity index,[12]; 5.6 kg/h,4 (100% control)
same,post-emergent herbicidal activity index,[13]; 5.6 kg/h,2 (50-74% control)
same,post-emergent herbicidal activity index,[13]; 11.2 kg/h,3 (75-99% control)
same,post-emergent herbicidal activity index,"[14]; Table I, 5.6 kg/h",3 (75-99% control)
same,post-emergent herbicidal activity index,"[14]; Table I, 11.2 kg/h",1 (25-49% control)
same,post-emergent herbicidal activity index,"[14]; Table II, 0.28 kg/h",0 (0-24% control)
same,post-emergent herbicidal activity index,"[14]; Table II, 1.12 kg/h",3 (75-99% control)
same,post-emergent herbicidal activity index,"[14]; Table II, 5.6 kg/h",3 (75-99% control)
same,post-emergent herbicidal activity index,[15]; 0.28 kg/h,0 (0-24% control)
same,post-emergent herbicidal activity index,[15]; 1.12 kg/h,5
same,post-emergent herbicidal activity index,[15]; 5.6 kg/h,2 (50-74% control)
same,post-emergent herbicidal activity index,"[16]; Table I, 5.6 kg/h",3 (75-99% control)
same,post-emergent herbicidal activity index,"[16]; Table I, 11.2 kg/h",3 (75-99% control)
same,post-emergent herbicidal activity index,"[16]; Table II, 0.28 kg/h",1 (25-49% control)
same,post-emergent herbicidal activity index,"[16]; Table II, 1.12 kg/h",2 (50-74% control)
same,post-emergent herbicidal activity index,"[16]; Table II, 5.6 kg/h",3 (75-99% control)
same,post-emergent herbicidal activity index,[17]; 0.28 kg/h,2 (50-74% control)
same,post-emergent herbicidal activity index,[17]; 1.12 kg/h,4 (100% control)
same,post-emergent herbicidal activity index,[17]; 5.6 kg/h,4 (100% control)
same,post-emergent herbicidal activity index,[18]; 0.28 kg/h,0 (0-24% control)
same,post-emergent herbicidal activity index,[18]; 1.12 kg/h,2 (50-74% control)
same,post-emergent herbicidal activity index,[18]; 5.6 kg/h,4 (100% control)
same,post-emergent herbicidal activity index,[19]; 0.28 kg/h,2 (50-74% control)
same,post-emergent herbicidal activity index,[19]; 1.12 kg/h,4 (100% control)
same,post-emergent herbicidal activity index,[19]; 5.6 kg/h,4 (100% control)
same,post-emergent herbicidal activity index,"[20]; Table I, 5.6 kg/h",3 (75-99% control)
same,post-emergent herbicidal activity index,"[20]; Table I, 11.2 kg/h",4 (100% control)
same,post-emergent herbicidal activity index,"[20]; Table II, 0.28 kg/h",0 (0-24% control)
same,post-emergent herbicidal activity index,"[20]; Table II, 1.12 kg/h",3 (75-99% control)
same,post-emergent herbicidal activity index,"[20]; Table II, 5.6 kg/h",4 (100% control)
